Results published in article PMC9818021, “Targets, Mechanisms and Cytotoxicity of Half-Sandwich Ir(III) Complexes Are Modulated by Structural Modifications on the Benzazole Ancillary Ligand” (Cancers, 2022).

Key:
[1] = Stopped flow kinetics of DMSO substitution by OH-; assay type: physicochemical
Method: The slow kinetic measurements were performed with the previous spectrophotometer while the fast kinetic measurements were performed in a stopped flow Bio-Logic SFM-300 spectrophotometer with an absorbance detection system and dead time below 3 ms. The kinetic curves, obtained averaging out at least five shots, were analysed with the Jandel (AISN software, Mapleton, OR) fitting package.

SW480 cells = assay: Ir cellular uptake by ICP-MS; assay type: cell-based, human; conditions: 2 µM, 24 h
Method: Quantification of Ir cellular uptake by ICP-MS (Inductively coupled plasma-mass spectrometry). Metal accumulation studies were conducted on the SW480 cell line. In these experiments, 3 × 10^5 cells were seeded in 12.5 cm^2 tissue culture flasks in drug-free medium and incubated for 24h at 37 °C in a 5% CO2 humidified atmosphere. Then, cells were treated with 2 µM of the iridium complexes. After 24 h of exposure, cells were washed twice with PBS and harvested. The pellets were resuspended in PBS, and 10 µL were used to count cells. Then, each resuspended pellet was digested in 65% HNO3 for 24 h. Finally, solutions were analyzed in a 7700 ICP-MS (Agilent Technologies, Palo Alto, CA, USA). Data is reported as the mean the standard deviation (n = 3).

A549 cells [2] = assay: Cell cycle analysis by flow cytometry; assay type: cell-based, human; conditions: 8 µM, 24 h, PI staining
Method: (§1) DNA damage was measured using EpiQuik 8-OHdG DNA Damage Quantification Direct Kit (colorimetric) (Fischer, Waltham, MA, USA, P600396); The mitochondrial cytochrome C release was evaluated using the “Millipore’s FlowCellect Cytochrome C Kit (Millipore, FCCH100110)”. Lactate dehydrogenase activity release was measured in the culture medium using Cytotoxicity Detection Kit (Roche Diagnostic, Barcelona, Spain, 11 644 793 001). Protein synthesis was determined using Click-iT Plus O-propargyl-puromycin (OPP) Protein Synthesis Assay Kit (Invitrogen™, Waltham, MA, USA). Measurement of GSH/GSSG was determined with GSH/GSSG-Glo Assay (Promega, V6611). Measurements of OCR and ECAR with Seahorse XFp (Agilent Technologies) were determined using the XFp Cell Mito Stress Test Kit (103010-100) and XFp Glycolysis Stress Test Kit (103017-100). ATP measurement was determined with Cell Titer-Glo Luminescent Cell Viability Assay (Promega, Madison, WI, USA, G7570). Determination of DNA damage using phosphorylated H2AX measurement were performed as previously described. Cardiolipin oxidation using the fluorophore Nonyl Acridine Orange (NAO, Thermo Scientific, A1372) was performed as described. Cell viability was determined by Hoechst inclusion and Propidium iodide (PI) exclusion by standard protocols. TEM analysis were performed as described. […]

A549 cells [3] = assay: Cardiolipin oxidation (NAO, flow cytometry); assay type: cell-based, human; conditions: 4 h
Method: as §1

CHOP = CHOP induction (CHOP::GFP plasmid); assay type: cell-based, human; conditions: HEK293, 9.7 µM, 24 h time-lapse
Method: CHOP induction. HEK293 cells were seeded at 8 × 10^5 cell/well in 24-well plates and transfected with CHOP::GFP plasmid (Addgene plasmid #21898; http://n2t.net/addgene:21898; RRID:Addgene_21898, 10 November 2022) using the transfection reagent DreamFectTM Gold (OZ Bioscience, Cat. N. º LM80250). After 24 h incubation, the treatments were added: 1[C,NH] 9.7 µM; tunicamycin 0.5 µM as positive control. Cells were stained with propidium iodide (1 µg/mL). Time-lapse images were acquired every 30 min for 24 h.

[4] = Drug uptake by cells (ICP-MS); assay type: cell-based; conditions: 16 μM, 400,000 cells, 4 h
Method: 1[C,NH] reduced the lung tumor burden. Prior the performance of in vivo studies, the drug uptake was determined. The amount of 1[C,NH] entering the cell was estimated after administration of 16 μM of 1[C,NH] to 400,000 cells. The intracellular iridium content was assessed after 4 h by ICP-MS, and the percentage of drug taken up by cells was 1.7%. Then, acute toxicity and bio distribution of 1[C,NH] was studied in healthy mice (BALB/c). […] Antitumor efficacy was studied using an orthotopic model of lung cancer in nude mice (Figure 8B). A549-luc cells (A549 cells marked with luciferase) were used to induce the tumor and 20 days after the injection of cells, we proceeded to the administration of 4 doses (0.9 mg/kg) of 1[C,NH] on alternate days. […] However, we cannot exclude the appearance of toxic effects after repeated administrations over longer periods of time. […] To differentiate the effect of 1[C,NH] on the primary tumor and on the affected nodes, at day 37, the animals were sacrificed, and luciferase activity, as a marker on the presence of tumor cells, was measured. […] Moreover, lung mice were stained with a monoclonal antibody against a human cytokeratin (only A549 tumor cells of human origin were stained) (Figure 8D). […] In addition, other factors influence the efficacy of a drug on the primary tumor and not on the metastasis, cell-cell interactions, matrix in the nodes, etc. […]

A549 cells [5] = assay: Protein synthesis (Click-iT OPP); assay type: cell-based, human; conditions: 16 µM, 6 h
Method: as §1

[6] = system: A549-luc orthotopic lung tumor in athymic nude mice; assay: Orthotopic lung cancer model (A549-luc); assay type: in vivo, mouse
Method: Orthotopic lung cancer model. Athymic nude mice were used. The model was developed following the protocol previously described. On day 20, treatment with the metal complex was started, and 4 doses were given every other day. Tumor growth was measured in vivo by luminescence (IVIS® Spectrum) on the days that the complexes were not administered, ending the experiment on day 37 with the sacrifice of the animal and the removal of organs. Organ indicators of metastases, lungs, and mediastinal lymph nodes were processed as previously described. Histological analyzes were performed as described.

A549 cells [7] = assay: Lactate dehydrogenase release; assay type: cell-based, human; conditions: 16 µM, 1% FBS
Method: as §1

[8] = 4 doses (0.9 mg/kg) on alternate days

| Compound | k (substitution of DMSO by OH-) ([1]; pH = 10.2) [s⁻¹] | k (substitution of DMSO by OH-) ([1]; pH = 11.5) [s⁻¹] | Metal accumulation in SW480 cells (SW480 cells) | Cell cycle distribution (A549 cells [2]) | Cardiolipin oxidation (A549 cells [3]) | CHOP expression (CHOP) | Percentage of drug taken up by cells [4] [%] | Inhibition of total protein synthesis (A549 cells [5]) | Body weight of treated mice [6, 8] | Necropsy findings in non-tumor tissues [6, 8] | Luciferase activity in mediastinal nodes ([6]; 4 doses (0.9 mg/kg), day 37) | Luciferase activity in the primary tumor (lung extracts) ([6]; 4 doses (0.9 mg/kg), day 37) | Size of tumor foci (anti-CK7 immunohistochemistry) ([6]; 4 doses (0.9 mg/kg), day 37) | LDH release to the medium (A549 cells [7]) |
| --- | --- | --- | --- | --- | --- | --- | --- | --- | --- | --- | --- | --- | --- | --- |
| Cc1c(C)c(C)[c-](C)c1C.[Cl][Ir]1[O]c2ccccc2-c2sc3ccccc3[n+]21 [8[CO,S], [(η^5-Cp*)IrCl(κ^2-O,N-hpbtz)]] | 39 | 112 | highest accumulation | – | – | – | – | – | – | – | – | – | – | – |
| Cc1c(C)c(C)[c-](C)c1C.[Cl][Ir]1[c]2ccccc2-c2[nH]c3ccccc3[n+]21 [1[C,NH], [(η^5-Cp*)IrCl(κ^2-N,C-pbim)]] | – | – | – | percentage of cells in G0/G1 phase increased and cells in G2/M phase decreased | induced CL oxidation | increased expression | 1.7 | around 60% | did not lose weight | no pathological evidence of relevance was detected in non-tumor tissues | lack of effect | significantly reduced luciferase activity in the primary tumor | strong effect on reducing the size of tumor foci | only began after 8 h of incubation |
